Several values for one entry are separate records, joined by “and”; a condition that tells them apart may be missing. Equal entries are not always repeated.
Test system: TWEAK-Fn14 signalling pathway, BRV5 cells
Experiment: Cell-based screening of individual peptides, gene expression microarray in TWEAK-stimulated BRV5 cells
Parameters: species or system human
Conditions: 6 h; for regulation of probe genes by individual peptides: BRV5 + TWEAK 25 ng/mL, peptides 450 µM; for BIRC2 mRNA expression (normalized to NARS2) / HSP90B1 mRNA expression (normalized to NARS2) / IL6 mRNA expression (normalized to NARS2) / JUN mRNA expression (normalized to NARS2) / MAP4K4 mRNA expression (normalized to NARS2) / MAPK14 mRNA expression (normalized to NARS2) / NFKB2 mRNA expression (normalized to NARS2) / TNFRSF12A mRNA expression (normalized to NARS2) / TRAF2 mRNA expression (normalized to NARS2) / BIRC2 expression Z-Score / HSP90B1 expression Z-Score / IL6 expression Z-Score / JUN expression Z-Score / MAP4K4 expression Z-Score / MAPK14 expression Z-Score / NFKB2 expression Z-Score / TNFRSF12A expression Z-Score / TRAF2 expression Z-Score: individual peptides, BRV5 + TWEAK; for BIRC2 mRNA expression (normalized to NARS2) / HSP90B1 mRNA expression (normalized to NARS2) / IL6 mRNA expression (normalized to NARS2) / JUN mRNA expression (normalized to NARS2) / MAP4K4 mRNA expression (normalized to NARS2) / MAPK14 mRNA expression (normalized to NARS2) / NFKB2 mRNA expression (normalized to NARS2) / TNFRSF12A mRNA expression (normalized to NARS2) / TRAF2 mRNA expression (normalized to NARS2): 450 µM; for BIRC2 expression Z-Score / HSP90B1 expression Z-Score / IL6 expression Z-Score / JUN expression Z-Score / MAP4K4 expression Z-Score / MAPK14 expression Z-Score / NFKB2 expression Z-Score / TNFRSF12A expression Z-Score / TRAF2 expression Z-Score: normalized to NARS2
Description: Pool 1 and 5 were therefore deconstructed to assess the effect of individual peptides and their activity on same cell-based screening. Pools 1 and 5 were composed of peptides 45, 46, 42, 3, 49, 11, and 13; and of peptides 1, 9, 30, 35, 41, 43, 7, and 14, respectively. As before, and shown in Figure 4B, the level of expression of probe genes on TWEAK-stimulated (T) BRV5 cells is overall higher than on non-stimulated (NT) one. […] The structural model of peptides 43, 30, 35 and 49 bound to TWEAK can be seen in Figure 5 and Supplementary Materials Figures S4–S6, respectively.
Three different cell lines were used in this study: BRV5, MDA-MB 435 (435-P), and HT29. The BRV5 is a highly metastatic brain cell line, obtained in one of our laboratories by primary culture from a brain of a nude mouse inoculated with human 435-Br1 brain metastatic cells, as previously described and used as a model to test the peptides in cell cultures. […] The triple negative 435-P cell line is a useful human breast cancer model that expresses both epithelial and melanocytic markers, and was included as the parental cell from which 435-Br1 metastatic variant was initially originated (both cell lines kindly provided by Dr Fabra at IDIBELL Institute, Hospitalet de Llobregat, Spain). Finally, HT29 human colon carcinoma cells obtained from the European Type Culture Collection (ECACC 91072201) were used as a positive control of TWEAK dependent Fn14 over-expressing cells to evaluate TWEAK-Fn14 axis of brain metastatic variants.
Appropriate cell culture conditions were established as the controls needed in the expression of genes with and without peptides and with and without TWEAK activation, both as pools and individually (see Supplementary Materials Figure S2). The protocol started with the seeding of 125,000 cells/well in 500 µL of culture media supplemented with 10% fetal bovine serum (CM+FBS10%) in 24-well dishes for 24 h before removing FBS (CM-FBS). After overnight starvation in CM-FBS culture, different peptide treatment conditions (at final concentration of 450 µM) were established in the presence or absence of TWEAK (25 ng/mL final concentration) (Peprotech EC, Ltd., London, UK). Some cells were treated with peptides at a single, unique, initial dose (time 0) while other were treated with repeated doses to account for the effect cell-culture degradation. These include a repeated treatment every hour (i.e., […]), every two hours (time 0, 2, and 4) and every three hours (time 0 and 3)—see Supplementary Materials Figure S2 for diagrammatic depiction. At time 6 (after six hours) cells were lysed and RNA extracted for transcriptomic analyses (see next). Cell were culture for six hours as this was the time needed to achieve the highest upregulation of the TWEAK-Fn14 axis upon TWEAK treatment as shown in previous time-course RT-PCR experiments (see Figure 2).
RNA from cells was extracted 6 h after treatments by direct lysis on the well. The RNeasy Micro kit (Qiagen, Hilden, Germany) was used to isolate total RNA from cell lysate following manufacturer’s protocols including an additional step of digestion with DNase I (Qiagen, Hilden, Germany). Total RNA concentration was measured in a NanoDrop 1000 spectrophotometer (Thermo Scientific, Waltham, MA, USA). The RNA extracted from treated and untreated cells (see above) was used as a proxy for gene expression.
The quantitative RT-PCR was performed using Fluidigm Dynamic Array FlexSix array with the specific primers for gene expression (Delta Genes Assays, Wet lab tested on Dynamic Array IFC) designed to RefSeq for detection by pPCR EvaGreen assay (Dynamic Array FlexSix, Fluidigm Corporation). Each Flex Six IFC has a total of six independent partitions. Each partition has a 12 × 12 format (12 assay inlets and 12 sample inlets) and will be run independently as a separate experimental run. […]

Substance	regulation of probe genes by individual peptides	BIRC2 mRNA expression (normalized to NARS2) (mean of replicate columns)	HSP90B1 mRNA expression (normalized to NARS2) (mean of replicate columns)	IL6 mRNA expression (normalized to NARS2) (mean of replicate columns)	JUN mRNA expression (normalized to NARS2) (mean of replicate columns)	MAP4K4 mRNA expression (normalized to NARS2) (mean of replicate columns)	MAPK14 mRNA expression (normalized to NARS2) (mean of replicate columns)	NFKB2 mRNA expression (normalized to NARS2) (mean of replicate columns)	TNFRSF12A mRNA expression (normalized to NARS2) (mean of replicate columns)	TRAF2 mRNA expression (normalized to NARS2) (mean of replicate columns)	BIRC2 mRNA expression (normalized to NARS2) (replicate column 1)	HSP90B1 mRNA expression (normalized to NARS2) (replicate column 1)	IL6 mRNA expression (normalized to NARS2) (replicate column 1)	JUN mRNA expression (normalized to NARS2) (replicate column 1)	MAP4K4 mRNA expression (normalized to NARS2) (replicate column 1)	MAPK14 mRNA expression (normalized to NARS2) (replicate column 1)	NFKB2 mRNA expression (normalized to NARS2) (replicate column 1)	TNFRSF12A mRNA expression (normalized to NARS2) (replicate column 1)	TRAF2 mRNA expression (normalized to NARS2) (replicate column 1)	BIRC2 mRNA expression (normalized to NARS2) (replicate column 2)	also measured
11: SGVAYQETT [Peptide 11]	induced a higher level of expression of the gene	0.6438	2.54	0.001558	0.1006	0.1986	0.2184	0.047	0.01869	0.01037	0.6157	2.376	0.001178	0.09818	0.2001	0.2179	0.04834	0.01871	0.01036	0.6719	HSP90B1 mRNA expression (normalized to NARS2) (replicate column 2): 2.704; IL6 mRNA expression (normalized to NARS2) (replicate column 2): 0.001938; JUN mRNA expression (normalized to NARS2) (replicate column 2): 0.1029; MAP4K4 mRNA expression (normalized to NARS2) (replicate column 2): 0.1972; MAPK14 mRNA expression (normalized to NARS2) (replicate column 2): 0.219; NFKB2 mRNA expression (normalized to NARS2) (replicate column 2): 0.04567; TNFRSF12A mRNA expression (normalized to NARS2) (replicate column 2): 0.01867; TRAF2 mRNA expression (normalized to NARS2) (replicate column 2): 0.01038; BIRC2 expression Z-Score (listed as P11): 0.5906; HSP90B1 expression Z-Score (listed as P11): 0.5337; IL6 expression Z-Score (listed as P11): -0.2862; JUN expression Z-Score (listed as P11): 0.0366 and 0.03662; MAP4K4 expression Z-Score (listed as P11): 0.3403; MAPK14 expression Z-Score (listed as P11): 0.3151; NFKB2 expression Z-Score (listed as P11): 0.622; TNFRSF12A expression Z-Score (listed as P11): -0.2085; TRAF2 expression Z-Score (listed as P11): -0.4411
13: YSGYFGGFY [Peptide 13]	to some extent, 13 induced a higher level of expression of the gene	0.4307	2.183	0.005226	0.4257	0.2531	0.2388	0.05228	0.02853	0.02474	0.4177	2.2352	0.005457	0.419	0.2593	0.2431	0.05087	0.02856	0.02503	0.4436	HSP90B1 mRNA expression (normalized to NARS2) (replicate column 2): 2.131; IL6 mRNA expression (normalized to NARS2) (replicate column 2): 0.004995; JUN mRNA expression (normalized to NARS2) (replicate column 2): 0.4325; MAP4K4 mRNA expression (normalized to NARS2) (replicate column 2): 0.2468; MAPK14 mRNA expression (normalized to NARS2) (replicate column 2): 0.2344; NFKB2 mRNA expression (normalized to NARS2) (replicate column 2): 0.05368; TNFRSF12A mRNA expression (normalized to NARS2) (replicate column 2): 0.0285; TRAF2 mRNA expression (normalized to NARS2) (replicate column 2): 0.02446; BIRC2 expression Z-Score (listed as P13): -0.8852; HSP90B1 expression Z-Score (listed as P13): -0.101; IL6 expression Z-Score (listed as P13): 2.8881 and 2.888; JUN expression Z-Score (listed as P13): 3.7769 and 3.777; MAP4K4 expression Z-Score (listed as P13): 1.699; MAPK14 expression Z-Score (listed as P13): 0.6701; NFKB2 expression Z-Score (listed as P13): 1.124; TNFRSF12A expression Z-Score (listed as P13): 0.91; TRAF2 expression Z-Score (listed as P13): 0.255

Reference: PMC7866087, “Evaluation of Computationally Designed Peptides against TWEAK, a Cytokine of the Tumour Necrosis Factor Ligand Family” (International Journal of Molecular Sciences, 2021)
